# Experimental data taken from ChEMBL document CHEMBL3352310, “A perspective on targeting non-structural proteins to combat neglected tropical diseases: Dengue, West Nile and Chikungunya viruses” (Eur J Med Chem, 2014).
# Peptide text beside a SMILES is read from it. * marks the point of attachment. Bz = O=C(c1ccccc1)*
# How the values were obtained:
# Genome polyprotein [1] = target: T1, Genome polyprotein (West Nile virus, UniProt P06935); assay: Inhibition of West Nile virus NS2B-NS3 protease
# dengue virus type 1 = assay: Antiviral activity against Dengue virus 1; type: functional, organism-based
# dengue virus type 4 = assay: Antiviral activity against Dengue virus 4; type: functional, organism-based
# dengue virus type 2 = assay: Antiviral activity against Dengue virus 2; type: functional, organism-based
# dengue virus type 3 = assay: Antiviral activity against Dengue virus 3; type: functional, organism-based
# Genome polyprotein [2] = target: Genome polyprotein (dengue virus type 2, UniProt P12823); assay: Inhibition of dengue virus-2 NS2B-NS3 protease
# Dengue virus [3] = assay: Antiviral activity against Dengue virus assessed as inhibition of viral replication; type: functional, organism-based
# [4] = Inhibition of Dengue virus RNA-directed RNA polymerase NS5
# Genome polyprotein [5] = target: T2, Genome polyprotein (dengue virus type 2, UniProt Q91H74); assay: Inhibition of dengue virus NS2B-NS3 protease
# Dengue virus [6] = assay: Antiviral activity against Dengue virus assessed as inhibition of viral RNA replication; type: functional, organism-based
# Genome polyprotein [7] = target: T1, Genome polyprotein; assay: Non-competitive inhibition of West Nile virus NS2B-NS3 protease
# Genome polyprotein [8] = target: T2, Genome polyprotein; assay: Inhibition of dengue virus-4 NS2B-NS3 protease; parameters: species or system dengue virus type 4
# Genome polyprotein [9] = target: T2, Genome polyprotein; assay: Inhibition of dengue virus-1 NS2B-NS3 protease; parameters: species or system dengue virus type 1
# Genome polyprotein [10] = target: T2, Genome polyprotein; assay: Inhibition of dengue virus-3 NS2B-NS3 protease; parameters: species or system dengue virus type 3
# [11] = Inhibition of Dengue virus-3 2'-O-methyltransferase; parameters: species or system dengue virus type 3
# [12] = Inhibition of Dengue virus-3 N7-methyltransferase; parameters: species or system dengue virus type 3
# Dengue virus [13] = assay: Antiviral activity against Dengue virus; type: functional, organism-based
# Chikungunya virus = assay: Antiviral activity against Chikungunya virus assessed as inhibition of viral replication; type: functional
smiles,measurement,setting,value
N=C(N)NCCC[C@H](NC(=O)[C@H](CCCCN)NC(=O)[C@H](CCCCN)NC(=O)c1ccccc1)C(=O)O (Bz-Lys-Lys-Arg-OH),IC50,Genome polyprotein [1],0.42 µM
Cc1ccc(S(=O)(=O)Nc2cc(SCC(=O)O)c(O)c3ccccc23)cc1[N+](=O)[O-],EC50,dengue virus type 1,0.97 µM
same,EC50,dengue virus type 4,0.74 µM
same,EC50,dengue virus type 2,0.98 µM
same,EC50,dengue virus type 3,2.43 µM
N#Cc1ccc(OC(=O)c2ccc(NC(=N)N)cc2)cc1,IC50,Genome polyprotein [2],37.9 µM
same,Ki,Genome polyprotein [2],31.1 µM
O=c1c(OC2O[C@H](CO)[C@@H](O)[C@H](O)[C@H]2O)c(-c2ccc(OC3O[C@H](CO)[C@@H](O)[C@H](O)[C@H]3O)c(O)c2)oc2cc(O)cc(O)c12 (stereo partly drawn),IC50,Dengue virus [3],1.7 µM
O=c1cc(-c2ccc(Oc3c(O)cc4occ(-c5ccc(O)cc5)c(=O)c4c3O)cc2)oc2cc(O)cc(O)c12,IC50,[4],0.26 µM
O=c1cc(-c2ccccc2)oc2ccc(-c3cn[nH]n3)cc12,IC50,Genome polyprotein [5],69 µM
COc1ccc(-c2nnc(C(Cc3ccccc3)n3sc4ccccc4c3=O)o2)cc1 (stereo not drawn),IC50,Genome polyprotein [5],3.75 µM
COc1ccc(-c2coc3c(-c4cc(-c5cc(=O)c6c(O)cc(O)cc6o5)ccc4O)c(O)cc(O)c3c2=O)cc1,IC50,[4],0.75 µM
CN1CCN(CCOc2cc(OC3CCOCC3)c3c(Nc4c(Cl)ccc5c4OCO5)ncnc3c2)CC1 [SARACATINIB],EC50,Dengue virus [6],1.6 µM
CCc1ccc(NC(=O)CSc2nc3ccc(NC(=O)CSc4nnc(-c5ccccc5)n4C)cc3s2)cc1,IC50,Genome polyprotein [1],3.4 µM
O=C1c2c(O)ccc([N+](=O)[O-])c2C(=O)c2c([N+](=O)[O-])ccc(O)c21,EC50,dengue virus type 1,5.96 µM
same,EC50,dengue virus type 4,0.88 µM
same,EC50,dengue virus type 2,0.44 µM
same,EC50,dengue virus type 3,3.08 µM
CCCSc1nnc(N2C(=O)C(O)=C(C(=O)c3ccc(Cl)cc3)C2c2ccc(Cl)cc2)s1 (stereo not drawn),IC50,Genome polyprotein [7],2.2 µM
C[C@@H]1O[C@@H](OC[C@H]2O[C@@H](Oc3c(-c4ccc(O)c(O)c4)oc4cc(O)cc(O)c4c3=O)[C@H](O)[C@@H](O)[C@@H]2O)[C@H](O)[C@H](O)[C@H]1O [RUTIN],IC50,Dengue virus [3],1.7 µM
CC(C)C[C@@H]1NC(=O)[C@H](CCCN)NC(=O)[C@H](C(C)C)NC(=O)[C@H](Cc2ccc(O)cc2)N[C@@H](CCC(=O)O)C(=O)N[C@@H](CC(N)=O)C(=O)[C@@H](Cc2ccccc2)NC(=O)[C@H](Cc2ccccc2)NC(=O)[C@@H]2CCCN2C(=O)[C@@H](Cc2ccccc2)NC1=O,Ki,Genome polyprotein [1],2 µM
Cc1nc(Nc2ncc(C(=O)Nc3c(C)cccc3Cl)s2)cc(N2CCN(CCO)CC2)n1 [DASATINIB],EC50,Dengue virus [6],0.11 µM
O=c1c(O[C@@H]2O[C@@H](CO)[C@H](O)[C@H]2O)c(-c2ccc(O)c(O)c2)oc2cc(O)cc(O)c12 [AVICULARIN],IC50,Dengue virus [3],1.7 µM
Cc1cc(C)c2c(c1)OC(c1ccc(N(C)C)cc1)CC2=O (stereo not drawn),IC50,Genome polyprotein [5],121 µM
N=C(N)NCCC[C@H](NC(=O)[C@H](CCCCN)NC(=O)[C@H](CCCCN)NC(=O)C1CC1)C(=O)O,IC50,Genome polyprotein [1],0.38 µM
Oc1c(C(Nc2nccs2)c2cccc(OCc3ccccc3)c2)ccc2cccnc12 (stereo not drawn),IC50,Genome polyprotein [1],2.01 µM
NC(=O)[C@H](Cc1c[nH]c2ccccc12)NC(=O)[C@H](CS)NC(=O)[C@H](Cc1ccc(O)cc1)NC(=O)[C@@H](N)Cc1c[nH]c2ccccc12 (H-WYCW-NH2),Ki,Genome polyprotein [8],11.2 µM
same,Ki,Genome polyprotein [9],4.2 µM
same,Ki,Genome polyprotein [10],24.4 µM
same,Ki,Genome polyprotein [2],4.8 µM
C[C@@H]1O[C@@H](Oc2c(-c3ccc(O)c(O)c3)oc3cc(O)cc(O)c3c2=O)[C@H](O)[C@H](O)[C@H]1O [QUERCITRIN],IC50,Dengue virus [3],1.7 µM
N=C(N)N[C@H]1CC[C@H](CNC(=O)[C@H](CCCCN)NC(=O)[C@H](CCCCN)NC(=O)Cc2ccc(Cl)c(Cl)c2)CC1,Ki,Genome polyprotein [1],0.13 µM
Cc1ccc(C(NN=C(N)N)[PH](=O)O)cc1 (stereo not drawn),IC50,Genome polyprotein [5],14 µM
NC(CCSC[C@H]1O[C@@H](n2ccc3c(NCc4cccc(Cl)c4)ncnc32)C(O)C1O)C(=O)O (stereo partly drawn),Ki,[11],0.17 µM
same,Ki,[12],0.82 µM
N=C(N)Nc1ccc(O[C@H]2C[C@@H](Oc3ccc(NC(=N)N)cc3NC(=N)N)[C@H](NC(=N)N)C[C@@H]2NC(=N)N)c(NC(=N)N)c1,IC50,Genome polyprotein [8],1 µM
same,IC50,Genome polyprotein [9],1 µM
same,IC50,Genome polyprotein [10],1 µM
same,IC50,Genome polyprotein [2],1 µM
O=c1c(O)c(-c2ccc(O[C@@H]3O[C@H](CO)[C@@H](O)[C@H](O)[C@H]3O)c(O)c2)oc2cc(O)cc(O)c12 [SPIRAEOSIDE],IC50,Dengue virus [3],1.7 µM
Cc1ccc2c(c1)-c1c(=O)nc(SCc3ccccc3)[nH][n+]1C(c1ccc(Cl)cc1)N2 (stereo not drawn),IC50,Genome polyprotein [7],5.41 µM
O=c1c(O[C@@H]2O[C@H](CO)[C@H](O)[C@H](O)[C@H]2O)c(-c2ccc(O)c(O)c2)oc2cc(O)cc(O)c12 [HYPEROSIDE],IC50,Dengue virus [3],1.7 µM
N=C(N)Nc1ccc(OC(=O)c2ccc(NC(=N)N)cc2)cc1,IC50,Genome polyprotein [2],7.7 µM
same,Ki,Genome polyprotein [2],2 µM
NC(=O)c1ncn([C@@H]2O[C@H](CO)[C@@H](O)[C@H]2O)n1 [RIBAVIRIN],EC50,Dengue virus [13],49 µM
C=C(C)[C@@H]1CC[C@]2(C(=O)O)CC[C@]3(C)[C@H](CC[C@@H]4[C@@]5(C)CC[C@H](O)C(C)(C)[C@@H]5CC[C@]43C)[C@@H]12 [BETULINIC ACID],IC50,Dengue virus [3],1.7 µM
CCOc1ccc(/C=N/NC(=O)/C=C/c2ccc(C(C)(C)C)cc2)cc1OCC,IC50,Chikungunya virus,3.2 µM
COc1cc2c(cc1OC)-c1cc3ccc(OC)c(OC)c3c[n+]1CC2 [PALMITINE],IC50,Genome polyprotein [7],96 µM
